Data: patent US11827612B2, “Hydroxamic acid derivative, method for producing same and use thereof” (INSTITUTE OF MEDICINAL BIOTECHNOLOGY, CHINESE ACADEMY OF …, priority 2019, dated 2023)
In brackets after ≈: the same amount, converted by molar mass.

Tests used:
E. coli ATCC 25922 = assay: Antibiotic susceptibility test, broth microdilution (CLSI), MIC; format: cell-based; conditions: Escherichia coli, ATCC25922, 35° C., 18 h, read-out: Minimal inhibitory concentration (MIC)
Procedure: (§1) An antibiotic susceptibility test was carried out using the broth microdilution guidelines as stipulated by the Clinical and Laboratory Standards Institute (CLSI). Test organisms were grown in Mueller-Hinton (MH) or Brain Heart Infusion (BHI) broth. Solutions of compounds to be tested were each diluted in 96-well plates (50 μl per well) to various prescribed concentrations with the MH or BHI broth. Final concentrations of the solutions in each well were as follows: 128, 64, 32, 16, 8, 4, 2, 1, 0.5, 0.25, 0.125, 0.06, and 0.03 μg/ml. The culture mediums in the 96-well plates were inoculated with 5×10^5 CFU/ml of the test organisms, and then the organisms were cultured at 35° C. for 18 h.

[1] = tested on: Klebsiella pneumoniae ATCC 700603; assay: as above; format: cell-based; conditions: ATCC700603, 35° C., 18 h, read-out: Minimal inhibitory concentration (MIC)
Procedure: as §1

[2] = tested on: NDM-1-producing Klebsiella pneumoniae 2146; assay: as above; format: cell-based; conditions: 35° C., 18 h, read-out: Minimal inhibitory concentration (MIC)
Procedure: as §1

[3] = tested on: Enterobacter aerogenes ATCC 13048; assay: as above; format: cell-based; conditions: Klebsiella aerogenes, ATCC13048, 35° C., 18 h, read-out: Minimal inhibitory concentration (MIC)
Procedure: as §1

[4] = tested on: Pseudomonas aeruginosa ATCC 27853; assay: as above; format: cell-based; conditions: ATCC27853, 35° C., 18 h, read-out: Minimal inhibitory concentration (MIC)
Procedure: as §1

[5] = tested on: Enterobacter cloacae ATCC 43560; assay: as above; format: cell-based; conditions: ATCC43560, 35° C., 18 h, read-out: Minimal inhibitory concentration (MIC)
Procedure: as §1

[6] = Experiments of toxicity in mice, tail vein injection; format: in vivo; conditions: both sexes, ICR, mouse, in vivo
Procedure: (§2) ICR mice of either sex weighing between 18-22 g were randomized into groups of 3 mice per group. […] The number of mice that died and the time of death were recorded. […] Tails were removed from the mice that were not dead from the injection and from the normal mice that were not given any of the compounds, and were then fixed in paraformaldehyde. Tail vessels were observed by HE staining to determine whether or not a lesion existed.

ICR mice = assay: as above; format: in vivo; conditions: for Toxicity/yes or no: ICR mice, tail vein injection; for Mortality rate / Number of deaths / Time of death: both, ICR, mouse, in vivo
Procedure: as §2

Structure (SMILES)	MIC (E. coli ATCC 25922) [µg/mL]	MIC [1] [µg/mL]	MIC [2] [µg/mL]	MIC [3] [µg/mL]	MIC [4] [µg/mL]	MIC [5] [µg/mL]	MTD [6] [mg/kg]	Toxicity/yes or no (ICR mice; dose 100 mg/kg)	Toxicity/yes or no (ICR mice; dose 200 mg/kg)	Toxicity/yes or no (ICR mice; dose 300 mg/kg)	Mortality rate (ICR mice; 100 mg/kg) [%]	Number of deaths (ICR mice; 100 mg/kg)	Mortality rate (ICR mice; 200 mg/kg) [%]	Number of deaths (ICR mice; 200 mg/kg)	Time of death (ICR mice; 200 mg/kg) [min]	Mortality rate (ICR mice; 300 mg/kg) [%]	Number of deaths (ICR mice; 300 mg/kg)	Time of death (ICR mice; 300 mg/kg) [min]
CC(C)(N)[C@H](NC(=O)N1CCN(C#CC#Cc2ccc([N+](=O)[O-])cc2)CC1)C(=O)NO [I-2, (S)—N-(3-amino-1-(hydroxyamino)-3-methyl-1-oxobutan-2-yl)-4-((4-nitrophenyl)butan-1,3-diyne-1-yl)-piperazin-1-carboxamide]	0.125 (≈ 0.292 µM)	2 (≈ 4.67 µM)	2 (≈ 4.67 µM)	2 (≈ 4.67 µM)	0.25 (≈ 0.584 µM)	0.5 (≈ 1.17 µM)	> 100	no	yes	yes	0	0	66	2	10 to 15	100	1	0.5 to 1
CC(C)(N)[C@H](NC(=O)c1ccc(C#CC#Cc2ccc(CN3CCCCC3)cc2)cc1O)C(=O)NO [I-3, (S)—N-(3-amino-1-(hydroxyamino)-3-methyl-1-oxobutan-2-yl)-2-hydroxy-4-((4-(piperidin-1-ylmethyl)phenyl)butan-1,3-diyne-1-yl)benzamide]	0.125 (≈ 0.256 µM)	4 (≈ 8.19 µM)	2 (≈ 4.09 µM)	2 (≈ 4.09 µM)	0.5 (≈ 1.02 µM)	1 (≈ 2.05 µM)	> 100	no	yes	yes	0	0	66	2	10 to 20	100	1	1
C[C@H]1COc2c(N3CCN(C)CC3)c(F)cc3c(=O)c(C(=O)O)cn1c23 [Levofloxacin, levofloxacin, reference compound]	≤ 0.25	0.5 (≈ 1.38 µM)	> 64	≤ 0.25	1 (≈ 2.77 µM)	≤ 0.25	–	–	–	–	–	–	–	–	–	–	–	–
CO[C@H]1CCC[C@@H]1C#CC#Cc1ccc(C(=O)N[C@H](C(=O)NO)C(C)(C)N)cc1 [I-1, N—((S)-3-amino-1-(hydroxyamino)-3-methyl-1-oxobutan-2-yl)-4-(((1R,2S)-2-methoxycyclopentyl)butan-1,3-diyne-1-yl)benzamide]	0.125 (≈ 0.314 µM)	2 (≈ 5.03 µM)	2 (≈ 5.03 µM)	1 (≈ 2.52 µM)	0.5 (≈ 1.26 µM)	1 (≈ 2.52 µM)	> 100	no	yes	yes	0	0	66	2	10 to 20	100	1	1
